Test results reported in PubChem BioAssay AID328 (DTP/NCI, 2004).
Where “and” joins values, the source holds several entries; their conditions need not be identical. Equal entries are not always repeated. Toxic doses and inconclusive results are not listed.

System: BDF1 mice, P388 leukemia ip, median survival T/C
Assay: NCI In Vivo Anticancer Drug Screen. Data for tumor model P388 Leukemia (intraperitoneal) in B6D2F1 (BDF1) mice
Details: endpoint: median survival time, higher = longer survival
Procedure, shortened: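 Mice carrying the transplantable tumour receive compound or vehicle. Survival is followed in each arm, and the treated measure is divided by the vehicle measure.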

[1] = dose: 50.0 mg/kg/injection, schedule: Q01DX009 (ip), vehicle: saline with Tween-80
[2] = dose: 100.0 mg/kg/injection, schedule: Q01DX009 (ip), vehicle: saline with Tween-80
[3] = dose: 100.0 mg/kg/injection, schedule: Q04DX003 (ip), vehicle: saline with Tween-80
[4] = dose: 200.0 mg/kg/injection, schedule: Q01DX009 (ip), vehicle: saline with Tween-80
[5] = dose: 200.0 mg/kg/injection, schedule: Q04DX003 (ip), vehicle: saline with Tween-80
[6] = dose: 400.0 mg/kg/injection, schedule: Q04DX003 (ip), vehicle: saline with Tween-80
[7] = dose: 6.25 mg/kg/injection, schedule: Q01DX009 (ip), vehicle: saline
[8] = dose: 50.0 mg/kg/injection, schedule: Q01DX009 (ip), vehicle: saline
[9] = dose: 25.0 mg/kg/injection, schedule: Q01DX009 (ip), vehicle: saline
[10] = dose: 100.0 mg/kg/injection, schedule: Q01DX009 (ip), vehicle: saline
[11] = dose: 12.5 mg/kg/injection, schedule: Q01DX009 (ip), vehicle: water
[12] = dose: 25.0 mg/kg/injection, schedule: Q01DX009 (ip), vehicle: water

## CCN(CCNc1ccc(CO)c2sc3ccccc3c(=O)c12)CC(C)(C)O
dose: 50.0 mg/kg/injection, schedule: Q04DX003 (ip), vehicle: Klucel (hydroxypropylcellulose) (HPC)
  T/C: 102 % of control
dose: 100.0 mg/kg/injection, schedule: Q04DX003 (ip), vehicle: Klucel (hydroxypropylcellulose) (HPC)
  T/C: 100 % of control
dose: 200.0 mg/kg/injection, schedule: Q04DX003 (ip), vehicle: Klucel (hydroxypropylcellulose) (HPC)
  T/C: 106 % of control

## CCOP1(=S)OCC(C)O1 (configuration not stated)
dose: 100.0 mg/kg/injection, schedule: Q04DX002 (ip), vehicle: saline with Tween-80
  T/C: 105 % of control
dose: 200.0 mg/kg/injection, schedule: Q04DX002 (ip), vehicle: saline with Tween-80
  T/C: 99 % of control
dose: 400.0 mg/kg/injection, schedule: Q04DX002 (ip), vehicle: saline with Tween-80
  T/C: 105 % of control

## O=C1C(Cl)=C(N2CC2)C(=O)C(Cl)=C1N1CC1
dose: 1.25 mg/kg/injection, schedule: Q01DX009 (ip), vehicle: saline with Tween-80
  T/C: 172 % of control
dose: 2.5 mg/kg/injection, schedule: Q01DX009 (ip), vehicle: Klucel (hydroxypropylcellulose) (HPC)
  T/C: 150 % of control
dose: 2.5 mg/kg/injection, schedule: Q01DX009 (ip), vehicle: saline with Tween-80
  T/C: 169 % of control
dose: 5.0 mg/kg/injection, schedule: Q01DX009 (ip), vehicle: Klucel (hydroxypropylcellulose) (HPC)
  T/C: 157 % of control and 165 % of control
dose: 5.0 mg/kg/injection, schedule: Q01DX009 (ip), vehicle: saline with Tween-80
  T/C: 172 % of control
dose: 5.0 mg/kg/injection, schedule: Q01DX009 (ip), vehicle: saline
  T/C: 155 % of control and 165 % of control
dose: 10.0 mg/kg/injection, schedule: Q01DX009 (ip), vehicle: Klucel (hydroxypropylcellulose) (HPC)
  T/C: 123 % of control
dose: 10.0 mg/kg/injection, schedule: Q01DX009 (ip), vehicle: saline with Tween-80
  T/C: 169 % of control
dose: 10.0 mg/kg/injection, schedule: Q01DX009 (ip), vehicle: saline
  T/C: 163 % of control and 200 % of control

## CCCCSCc1nc2nc(Cl)c(Cl)nc2[nH]1
[1]
  T/C: 110 % of control
[2]
  T/C: 108 % of control
[3]
  T/C: 109 % of control
[4]
  T/C: 91 % of control
[5]
  T/C: 95 % of control
dose: 400.0 mg/kg/injection, schedule: Q01DX009 (ip), vehicle: saline with Tween-80
  T/C: 94 % of control
[6]
  T/C: 95 % of control

## Cc1cc[n+](CCc2ccccc2)cc1
[7]
  T/C: 91 % of control
dose: 12.5 mg/kg/injection, schedule: Q01DX009 (ip), vehicle: saline
  T/C: 87 % of control
dose: 18.75 mg/kg/injection, schedule: Q01DX010 (ip), vehicle: acetone
  T/C: 91 % of control
dose: 37.5 mg/kg/injection, schedule: Q01DX010 (ip), vehicle: acetone
  T/C: 87 % of control
[8]
  T/C: 112 % of control
dose: 75.0 mg/kg/injection, schedule: Q01DX010 (ip), vehicle: acetone
  T/C: 91 % of control

## C#CC(C)OCC(O)CCl (configuration not stated)
[9]
  T/C: 100 % of control
[8]
  T/C: 118 % of control
[10]
  T/C: 109 % of control
dose: 100.0 mg/kg/injection, schedule: Q04DX003 (ip), vehicle: saline
  T/C: 108 % of control
dose: 200.0 mg/kg/injection, schedule: Q04DX003 (ip), vehicle: saline
  T/C: 104 % of control
dose: 400.0 mg/kg/injection, schedule: Q04DX003 (ip), vehicle: saline
  T/C: 108 % of control

## COC(=O)C1C(O)CCC2CN3CCc4c([nH]c5ccccc45)C3CC21 (configuration not stated)
[9]
  T/C: 88 % of control
[1]
  T/C: 105 % of control
[8]
  T/C: 88 % of control
[2]
  T/C: 119 % of control
[10]
  T/C: 110 % of control
dose: 200.0 mg/kg/injection, schedule: Q01DX009 (ip), vehicle: saline
  T/C: 118 % of control

## CC(C)CSc1ncnc2nc[nH]c12
dose: 25.0 mg/kg/injection, schedule: Q01DX009 (ip), vehicle: saline with Tween-80
  T/C: 90 % of control
[1]
  T/C: 100 % of control
[2]
  T/C: 104 % of control and 122 % of control
[3]
  T/C: 104 % of control
[5]
  T/C: 86 % of control
[6]
  T/C: 86 % of control

## CSCS(=O)C[C@H](CO)NC(=O)/C=C/c1c(C)[nH]c(=O)[nH]c1=O (some centres not stated)
dose: 0.15 mg/kg/injection, schedule: Q01DX010 (ip), vehicle: saline
  T/C: 109 % of control
dose: 0.3 mg/kg/injection, schedule: Q01DX010 (ip), vehicle: saline
  T/C: 122 % of control
dose: 0.6 mg/kg/injection, schedule: Q01DX010 (ip), vehicle: saline
  T/C: 172 % of control
dose: 0.72 mg/kg/injection, schedule: Q04DX003 (ip), vehicle: saline
  T/C: 105 % of control
dose: 0.78 mg/kg/injection, schedule: Q04DX002 (ip), vehicle: Klucel (hydroxypropylcellulose) (HPC)
  T/C: 100 % of control and 109 % of control
dose: 0.86 mg/kg/injection, schedule: Q04DX003 (ip), vehicle: saline
  T/C: 108 % of control
dose: 1.0 mg/kg/injection, schedule: Q04DX003 (ip), vehicle: saline
  T/C: 121 % of control
dose: 1.2 mg/kg/injection, schedule: Q01DX010 (ip), vehicle: saline
  T/C: 100 % of control
dose: 1.2 mg/kg/injection, schedule: Q04DX003 (ip), vehicle: saline
  T/C: 123 % of control
dose: 1.56 mg/kg/injection, schedule: Q04DX002 (ip), vehicle: Klucel (hydroxypropylcellulose) (HPC)
  T/C: 109 % of control
dose: 2.0 mg/kg/injection, schedule: Q04DX003 (ip), vehicle: saline
  T/C: 156 % of control
dose: 2.4 mg/kg/injection, schedule: Q04DX003 (ip), vehicle: saline
  T/C: 97 % of control
dose: 3.33 mg/kg/injection, schedule: Q04DX003 (ip), vehicle: saline
  T/C: 106 % of control
dose: 6.25 mg/kg/injection, schedule: Q04DX002 (ip), vehicle: Klucel (hydroxypropylcellulose) (HPC)
  T/C: 118 % of control
dose: 173.0 micrograms/kg/injection, schedule: Q01DX009 (ip), vehicle: saline
  T/C: 106 % of control
dose: 288.0 micrograms/kg/injection, schedule: Q01DX009 (ip), vehicle: saline
  T/C: 110 % of control
dose: 480.0 micrograms/kg/injection, schedule: Q01DX009 (ip), vehicle: saline
  T/C: 99 % of control

## CCCCCCCC[N+]12CC[N+](CCCCCCCC)(CC1)CC2
dose: 3.13 mg/kg/injection, schedule: Q01DX009 (ip), vehicle: saline
  T/C: 106 % of control
[7]
  T/C: 103 % of control

## COc1c(Br)cc(/C=C(/C)[N+](=O)[O-])cc1Br
[3]
  T/C: 114 % of control
[5]
  T/C: 160 % of control

## COc1cc([C@@H]2Oc3cc([C@@H]4Oc5cc(O)cc(O)c5C(=O)[C@H]4O)ccc3O[C@H]2CO)ccc1O
[3]
  T/C: 107 % of control
[5]
  T/C: 93 % of control
[6]
  T/C: 97 % of control

## c1ccc(-c2ccc(-c3cn4ccsc4n3)cc2)cc1
dose: 100.0 mg/kg/injection, schedule: Q01DX001 (ip), vehicle: Klucel (hydroxypropylcellulose) (HPC)
  T/C: 101 % of control
dose: 200.0 mg/kg/injection, schedule: Q01DX001 (ip), vehicle: Klucel (hydroxypropylcellulose) (HPC)
  T/C: 99 % of control
dose: 400.0 mg/kg/injection, schedule: Q01DX001 (ip), vehicle: Klucel (hydroxypropylcellulose) (HPC)
  T/C: 100 % of control

## Cc1cnc(C#N)c(-n2ccnc2)n1
[11]
  T/C: 92 % of control
[12]
  T/C: 100 % of control
dose: 50.0 mg/kg/injection, schedule: Q01DX009 (ip), vehicle: water
  T/C: 95 % of control
dose: 100.0 mg/kg/injection, schedule: Q01DX009 (ip), vehicle: water
  T/C: 100 % of control
dose: 200.0 mg/kg/injection, schedule: Q01DX009 (ip), vehicle: water
  T/C: 101 % of control

## Cc1ccc2oc(=O)c(C3=CC(=O)C(SC(=N)N)C=C3O)c(O)c2c1 (configuration not stated)
dose: 50.0 mg/kg/injection, schedule: Q01DX005 (ip), vehicle: Klucel (hydroxypropylcellulose) (HPC)
  T/C: 95 % of control
dose: 100.0 mg/kg/injection, schedule: Q01DX005 (ip), vehicle: Klucel (hydroxypropylcellulose) (HPC)
  T/C: 97 % of control
dose: 200.0 mg/kg/injection, schedule: Q01DX005 (ip), vehicle: Klucel (hydroxypropylcellulose) (HPC)
  T/C: 91 % of control

## COc1cccc2c1C(=O)c1c(O)c(COC3CC(N)C(O)C(C)O3)cc(O)c1C2=O (configuration not stated)
[11]
  T/C: 100 % of control
[12]
  T/C: 100 % of control

## Cc1cc(NC(=O)Nc2ccc(Cl)cc2)no1
[1]
  T/C: 100 % of control
[2]
  T/C: 100 % of control
[4]
  T/C: 100 % of control

## O=C(NC(=S)Nc1ccccc1C(=O)O)c1ccccc1
dose: 50.0 mg/kg/injection, schedule: Q04DX003 (ip), vehicle: saline with Tween-80
  T/C: 104 % of control
[3]
  T/C: 100 % of control
[5]
  T/C: 90 % of control

## O=C(N=Nc1c(O)[nH]c2c(Cl)cc(Cl)cc12)c1ccccc1O
[1]
  T/C: 90 % of control
[2]
  T/C: 87 % of control
[4]
  T/C: 96 % of control
